Assay results as given in patent US20240034724A1, “THERAPEUTIC COMPOUNDS USEFUL FOR THE PROPHYLACTIC OR THERAPEUTIC TREATMENT OF AN HIV VIRUS INFECTION” (Gilead Sciences, Inc., priority 2022, published 2024).

Key:
[1] = Test B: Cytotoxicity Assay in MT-4 Cells; type: cell-based; conditions: human, uninfected MT-4 cells, CellTiter-Glo
Description: (§1) For the MT-4 antiviral assay, 50 μL of 3-fold serially diluted compound in complete RPMI medium was added to each well of a 384-well plate (10 concentrations) in quadruplicate. MT-4 cells were infected with HIV-1 (IIIb strain) at a multiplicity of infection (m.o.i.) of ˜0.005 for 1 hour at 37° C. and 20 μL of virus/cell mixture (˜2,000 cells) was added to each well of the assay plate containing 50 μL of diluted compound. A positive control (1 μM azidothymidine, AZT) and a negative control (dimethyl sulfoxide, DMSO) were included in every assay plate to define 100% and 0% protection, respectively. The final DMSO concentration in the assay was 0.5%. The plates were then incubated at 37° C. for 5 days. At the end of the incubation, 30 μL of CellTiter-Glo reagent (Promega Madison, WI) was added to each well of the assay plates. Cell lysis was carried out by incubating the assay plates at room temperature for 10 minutes followed by the quantification of chemiluminescence signal using an EnVision plate reader (Perkin Elmer, Shelton, CT). Antiviral dose response data were normalized to positive and negative controls in each plate and analyzed by curve fitting after conversion of the data to % cell death to determine the half-maximal effective concentration (EC50) value, defined as the compound concentration that caused a 50% protection from cytopathic effect (CPE)-dependent virus-induced cell death. Test B: Cytotoxicity Assay in MT-4 Cells Compound cytotoxicity and the corresponding half-maximal cytotoxicity concentration (CC50) values was determined using the same protocol as described in the antiviral assay (Test A) except that uninfected cells were used and the data were normalized to the 100% viability control (DMSO) wells on each plate.

HIV-1 (IIIb strain) = assay: Test A: Antiviral Assay in the Human MT-4 T-Lymphoblastoid Cell Line; type: cell-based; conditions: Human immunodeficiency virus 1, MT4, 120 h; MT-4 cells infected with HIV-1 IIIb, 5 days, CellTiter-Glo, protection from virus-induced cell death
Description: Test A: Antiviral Assay in the Human MT-4 T-Lymphoblastoid Cell Line
as §1, with “death.” for “death. Test B: Cytotoxicity Assay in MT-4 Cells Compound cytotoxicity and the corresponding half-maximal cytotoxicity concentration (CC50) values was determined using the same protocol as described in the antiviral assay (Test A) except that uninfected cells were used and the data were normalized to the 100% viability control (DMSO) wells on each plate.”

Row | Compound | CC50 at 5 days [1] | EC50 (HIV-1 (IIIb strain))
1 | CC(C)(O)C#Cc1ccc(-c2ccc(Cl)c3c(NS(C)(=O)=O)nn(CC(F)(F)F)c23)c([C@H](Cc2cc(F)cc(F)c2)NC(=O)Cn2nc(C(F)(F)F)c3c2C(F)(F)[C@@H]2C[C@H]32)n1 [Example 1, N—((S)-1-(3-(4-chloro-3-(methylsulfonamido)-1-(2,2,2-trifluoroethyl)-1H-indazol-7-yl)-6-(3-hydroxy-3-methylbut-1-yn-1-yl)pyridin-2-yl)-2-(3,5-difluorophenyl)ethyl)-2-((3bS,4aR)-5,5-difluoro-3-(trifluoromethyl)-3b,4,4a,5-tetrahydro-1H-cyclopropa[3,4]cyclopenta[1,2-c]pyrazol-1-yl)acetamide] | 3610 nM | 0.34 nM
2 | CC(C)C#Cc1ccc(-c2ccc(Cl)c3c(NS(C)(=O)=O)nn(CC(F)(F)F)c23)c([C@H](Cc2cc(F)cc(F)c2)NC(=O)Cn2nc(C(F)(F)F)c3c2C(F)(F)[C@@H]2C[C@H]32)n1 [Example 3, N—((S)-1-(3-(4-chloro-3-(methylsulfonamido)-1-(2,2,2-trifluoroethyl)-1H-indazol-7-yl)-6-(3-methylbut-1-yn-1-yl)pyridin-2-yl)-2-(3,5-difluorophenyl)ethyl)-2-((3bS,4aR)-5,5-difluoro-3-(trifluoromethyl)-3b,4,4a,5-tetrahydro-1H-cyclopropa[3,4]cyclopenta[1,2-c]pyrazol-1-yl)acetamide] | 7500 nM | 21 nM
3 | CC(C)(C#Cc1ccc(-c2cccc3c(NS(C)(=O)=O)nn(CC(F)(F)F)c23)c([C@H](Cc2cc(F)cc(F)c2)NC(=O)Cn2nc(C(F)(F)F)c3c2C(F)(F)[C@@H]2C[C@H]32)n1)S(C)(=O)=O [Example 5, 2-((3bS,4aR)-5,5-difluoro-3-(trifluoromethyl)-3b,4,4a,5-tetrahydro-1H-cyclopropa[3,4]cyclopenta[1,2-c]pyrazol-1-yl)-N—((S)-2-(3,5-difluorophenyl)-1-(6-(3-methyl-3-(methylsulfonyl)but-1-yn-1-yl)-3-(3-(methylsulfonamido)-1-(2,2,2-trifluoroethyl)-1H-indazol-7-yl)pyridin-2-yl)ethyl)acetamide] | 9480 nM | 0.07 nM
4 | CCN(c1nn(CC(F)(F)F)c2c(-c3ccc(C#CC(C)(C)S(C)(=O)=O)nc3[C@H](Cc3cc(F)cc(F)c3)NC(=O)Cn3nc(C(F)(F)F)c4c3C(F)(F)[C@@H]3C[C@H]43)ccc(Cl)c12)S(C)(=O)=O [Example 6, N—((S)-1-(3-(4-chloro-3-(N-ethylmethylsulfonamido)-1-(2,2,2-trifluoroethyl)-1H-indazol-7-yl)-6-(3-methyl-3-(methylsulfonyl)but-1-yn-1-yl)pyridin-2-yl)-2-(3,5-difluorophenyl)ethyl)-2-((3bS,4aR)-5,5-difluoro-3-(trifluoromethyl)-3b,4,4a,5-tetrahydro-1H-cyclopropa[3,4]cyclopenta[1,2-c]pyrazol-1-yl)acetamide] | > 50000 nM | 3.3 nM
5 | CN(c1nn(CC(F)(F)F)c2c(-c3ccc(C#CC(C)(C)S(C)(=O)=O)nc3[C@H](Cc3cc(F)cc(F)c3)NC(=O)Cn3nc(C(F)(F)F)c4c3C(F)(F)[C@@H]3C[C@H]43)ccc(Cl)c12)S(C)(=O)=O [Example 4, N—((S)-1-(3-(4-chloro-3-(N-methylmethylsulfonamido)-1-(2,2,2-trifluoroethyl)-1H-indazol-7-yl)-6-(3-methyl-3-(methylsulfonyl)but-1-yn-1-yl)pyridin-2-yl)-2-(3,5-difluorophenyl)ethyl)-2-((3bS,4aR)-5,5-difluoro-3-(trifluoromethyl)-3b,4,4a,5-tetrahydro-1H-cyclopropa[3,4]cyclopenta[1,2-c]pyrazol-1-yl)acetamide] | > 50000 nM | 8.3 nM
6 | C=C(C)C#Cc1ccc(-c2ccc(Cl)c3c(NS(C)(=O)=O)nn(CC(F)(F)F)c23)c([C@H](Cc2cc(F)cc(F)c2)NC(=O)Cn2nc(C(F)(F)F)c3c2C(F)(F)[C@@H]2C[C@H]32)n1 [Example 2, N—((S)-1-(3-(4-chloro-3-(methylsulfonamido)-1-(2,2,2-trifluoroethyl)-1H-indazol-7-yl)-6-(3-methylbut-3-en-1-yn-1-yl)pyridin-2-yl)-2-(3,5-difluorophenyl)ethyl)-2-((3bS,4aR)-5,5-difluoro-3-(trifluoromethyl)-3b,4,4a,5-tetrahydro-1H-cyclopropa[3,4]cyclopenta[1,2-c]pyrazol-1-yl)acetamide] | 8740 nM | 18 nM
